From the NIST ThermoML archive (doi:10.1016/j.jct.2006.05.008)
± gives the expanded uncertainty stated by the source.

Test: molar heat capacity at constant pressure
Conditions: 101.33 kPa, Small (less than 1 g) adiabatic calorimetry

CCCCn1cc[n+](C)c1.[Br-] [1-butyl-3-methylimidazolium bromide]
Conditions | molar heat capacity at constant pressure [J/K/mol]
122.75 K, Glass | 139.07 ± 0.76
123.63 K, Crystal | 131.11 ± 0.73
124.78 K, Glass | 140.32 ± 0.76
125.66 K, Crystal | 132.08 ± 0.73
126.82 K, Glass | 141.79 ± 0.77
127.7 K, Crystal | 133.1 ± 0.73
128.85 K, Glass | 143.22 ± 0.77
129.73 K, Crystal | 134.32 ± 0.74
130 K, Crystal | 134.3 ± 0.75
130.89 K, Glass | 144.53 ± 0.78
131.77 K, Crystal | 135.36 ± 0.74
132.93 K, Glass | 145.61 ± 0.78
133.82 K, Crystal | 136.37 ± 0.75
134.98 K, Glass | 147.16 ± 0.79
135.86 K, Crystal | 137.63 ± 0.75
137.02 K, Glass | 148.47 ± 0.79
137.9 K, Crystal | 138.69 ± 0.75
139.07 K, Glass | 149.68 ± 0.8
139.95 K, Crystal | 139.77 ± 0.76
140 K, Crystal | 139.7 ± 0.75
141.11 K, Glass | 150.96 ± 0.8
142 K, Crystal | 140.95 ± 0.76
143.16 K, Glass | 152.33 ± 0.81
144.05 K, Crystal | 142.17 ± 0.77
145.21 K, Glass | 153.64 ± 0.82
146.11 K, Crystal | 143.29 ± 0.77
147.27 K, Glass | 154.99 ± 0.82
148.17 K, Crystal | 144.04 ± 0.78
149.33 K, Glass | 156.22 ± 0.82
150 K, Crystal | 145.1 ± 0.75
150.23 K, Crystal | 145.16 ± 0.78
151.38 K, Glass | 157.56 ± 0.83
152.28 K, Crystal | 146.48 ± 0.79
153.44 K, Glass | 158.85 ± 0.83
154.34 K, Crystal | 147.77 ± 0.79
155.5 K, Glass | 160.15 ± 0.84
156.4 K, Crystal | 148.83 ± 0.8
157.55 K, Glass | 161.46 ± 0.85
158.47 K, Crystal | 149.86 ± 0.8
159.61 K, Glass | 162.88 ± 0.85
160 K, Crystal | 150.5 ± 0.83
160.53 K, Crystal | 151.03 ± 0.8
161.68 K, Glass | 164.21 ± 0.86
162.59 K, Crystal | 152.18 ± 0.81
163.74 K, Glass | 165.38 ± 0.86
164.66 K, Crystal | 153.33 ± 0.81
165.8 K, Glass | 166.7 ± 0.87
166.73 K, Crystal | 154.42 ± 0.82
167.87 K, Glass | 168.08 ± 0.87
168.79 K, Crystal | 155.67 ± 0.82
169.93 K, Glass | 169.45 ± 0.88
170 K, Crystal | 156 ± 0.83
170.86 K, Crystal | 156.71 ± 0.83
172 K, Glass | 170.75 ± 0.88
172.93 K, Crystal | 157.83 ± 0.83
174.07 K, Glass | 172.09 ± 0.89
175 K, Crystal | 159 ± 0.84
176.14 K, Glass | 173.39 ± 0.89
177.07 K, Crystal | 160.17 ± 0.84
178.21 K, Glass | 174.81 ± 0.9
179.15 K, Crystal | 161.41 ± 0.85
180 K, Crystal | 161.6 ± 0.83
180.29 K, Glass | 176.19 ± 0.9
181.23 K, Crystal | 162.53 ± 0.85
182.37 K, Glass | 177.61 ± 0.91
183.3 K, Crystal | 163.73 ± 0.85
184.44 K, Glass | 178.88 ± 0.92
185.38 K, Crystal | 164.89 ± 0.86
186.51 K, Glass | 180.34 ± 0.92
187.45 K, Crystal | 166.26 ± 0.87
188.59 K, Glass | 181.72 ± 0.93
189.53 K, Crystal | 167.35 ± 0.87
190 K, Crystal | 167.4 ± 0.83
190.66 K, Glass | 183.15 ± 0.93
191.61 K, Crystal | 168.45 ± 0.87
192.74 K, Glass | 184.62 ± 0.94
193.69 K, Crystal | 169.62 ± 0.88
194.82 K, Glass | 186.01 ± 0.94
195.77 K, Crystal | 170.97 ± 0.88
196.9 K, Glass | 187.63 ± 0.95
197.85 K, Crystal | 172.33 ± 0.89
198.98 K, Glass | 189.28 ± 0.96
199.93 K, Crystal | 173.55 ± 0.89
200 K, Crystal | 173.4 ± 0.92
201.07 K, Glass | 191 ± 0.96
202.01 K, Crystal | 174.87 ± 0.9
203.15 K, Glass | 192.74 ± 0.97
204.09 K, Crystal | 176.17 ± 0.9
205.24 K, Glass | 194.6 ± 0.98
206.18 K, Crystal | 177.52 ± 0.91
207.34 K, Glass | 196.57 ± 0.99
208.26 K, Crystal | 178.87 ± 0.92
209.44 K, Glass | 199.14 ± 1
210 K, Crystal | 179.9 ± 0.92
210.34 K, Crystal | 180.27 ± 0.92
211.54 K, Glass | 201.34 ± 1
212.44 K, Crystal | 181.75 ± 0.93
213.66 K, Glass | 205.71 ± 1
214.52 K, Crystal | 183.24 ± 0.93
215.75 K, Glass | 211.67 ± 1
216.61 K, Crystal | 184.62 ± 0.94
217.78 K, Glass | 223.22 ± 1.1
218.7 K, Crystal | 186.06 ± 0.94
219.71 K, Glass | 249.71 ± 1.2
220 K, Crystal | 186.6 ± 0.92
220.79 K, Crystal | 187.32 ± 0.95
222.88 K, Crystal | 188.66 ± 0.96
224.97 K, Crystal | 190.05 ± 0.96
225.62 K, Liquid | 289.04 ± 1.4
227.06 K, Crystal | 191.53 ± 0.97
227.7 K, Liquid | 289.5 ± 1.4
229.15 K, Crystal | 192.85 ± 0.97
229.79 K, Liquid | 290.01 ± 1.4
230 K, Crystal | 193.1 ± 1
231.24 K, Crystal | 194.13 ± 0.98
231.89 K, Liquid | 290.69 ± 1.4
233.34 K, Crystal | 195.6 ± 0.98
233.98 K, Liquid | 291.24 ± 1.4
235.43 K, Crystal | 196.86 ± 0.99
236.07 K, Liquid | 291.65 ± 1.4
237.53 K, Crystal | 198 ± 0.99
238.17 K, Liquid | 292.05 ± 1.4
239.63 K, Crystal | 199.44 ± 1
240 K, Crystal | 199.5 ± 1
240.26 K, Liquid | 292.64 ± 1.4
241.72 K, Crystal | 200.93 ± 1
242.35 K, Liquid | 293.21 ± 1.4
243.82 K, Crystal | 202.36 ± 1
244.44 K, Liquid | 293.89 ± 1.4
245.93 K, Crystal | 203.67 ± 1
246.54 K, Liquid | 294.81 ± 1.4
248.03 K, Crystal | 205.09 ± 1
248.64 K, Liquid | 295.35 ± 1.4
250 K, Crystal | 206.2 ± 1
250.12 K, Crystal | 206.58 ± 1
250.73 K, Liquid | 296.1 ± 1.4
252.22 K, Crystal | 208.01 ± 1
252.83 K, Liquid | 296.76 ± 1.4
254.32 K, Crystal | 209.53 ± 1
256.43 K, Crystal | 211.04 ± 1
258.53 K, Crystal | 212.45 ± 1
260 K, Crystal | 213.2 ± 1.1
260.63 K, Crystal | 213.97 ± 1.1
262.74 K, Crystal | 215.49 ± 1.1
264.84 K, Crystal | 217.16 ± 1.1
266.93 K, Crystal | 218.74 ± 1.1
269.03 K, Crystal | 220.2 ± 1.1
270 K, Crystal | 220.8 ± 1.1
271.12 K, Crystal | 222.15 ± 1.1
273.22 K, Crystal | 223.99 ± 1.1
275.33 K, Crystal | 225.35 ± 1.1
277.43 K, Crystal | 227.05 ± 1.1
279.55 K, Crystal | 228.43 ± 1.1
280 K, Crystal | 228.4 ± 1.1
281.65 K, Crystal | 230.01 ± 1.1
283.76 K, Crystal | 231.57 ± 1.1
285.86 K, Crystal | 232.75 ± 1.1
287.97 K, Crystal | 234.48 ± 1.1
290 K, Crystal | 235.8 ± 1.2
290.08 K, Crystal | 236.13 ± 1.1
292.19 K, Crystal | 237.64 ± 1.2
294.31 K, Crystal | 239.37 ± 1.2
296.42 K, Crystal | 241.14 ± 1.2
298.15 K, Crystal | 241.8 ± 1.2
298.54 K, Crystal | 243.38 ± 1.2
300 K, Crystal | 243.1 ± 1.2
300.66 K, Crystal | 245.13 ± 1.2
302.78 K, Crystal | 247.98 ± 1.2
304.91 K, Crystal | 249.78 ± 1.2
308.84 K, Crystal | 254.23 ± 1.2
310 K, Crystal | 250.4 ± 1.2
312.32 K, Crystal | 258.72 ± 1.2
314.44 K, Crystal | 261.85 ± 1.2
320 K, Crystal | 257.8 ± 1.2
330 K, Crystal | 265.1 ± 1.2
340 K, Crystal | 272.5 ± 1.3
350 K, Crystal | 279.8 ± 1.3
351.35 K, Crystal | 280.8 ± 1.3
351.35 K, Liquid | 332.6 ± 1.5
355.98 K, Liquid | 334.82 ± 1.5
359.86 K, Liquid | 336.11 ± 1.5
360 K, Liquid | 336.3 ± 1.6
362.1 K, Liquid | 338.41 ± 1.6
364.36 K, Liquid | 339.33 ± 1.6
366.64 K, Liquid | 339.84 ± 1.6
370 K, Liquid | 340.9 ± 1.6
